Data on 39 molecules can be found in patent US6762046B2, “Polypeptide having β-fructofuranosidase activity” (Kabushiki Kaisha Hayashibara Seibutsu Kagaku Kenkyujo, priority 1996, dated 2004).

Data set [1] has as its system polypeptide having β-fructofuranosidase activity. The data set is described as follows: Specificity for fructofuranosyl transfer from sucrose to acceptors (TLC). The data set is classed as biochemical, Bacillus sp. V230. The conditions noted are these: acceptor and sucrose (donor) in equal weight, 10 w/v %, 2 units/g sucrose of polypeptide of Example 2-1, 40° C., pH 5.5, 24 hours. The arrangement: key: Compared with a reaction mixture of sucrose, “−” means unchanged; +: the size and color of a spot for fructofuranosyl acceptor reduced slightly, and spot for fructofuransyl-transferred product was slightly detected; ++: the size and color of a spot for fructofuranosyl acceptor more reduced and a spot for fructofuransyl transferred product was clearly observed. The procedure: Using as fructofuranosyl acceptors the monosaccharides, oligosaccharides and alcohols in Table 1, the specificity of the present polypeptide for fructofuranosyl transfer was studied: Any one of the fructofuranosyl acceptors in Table 1 and sucrose as a fructofuranosyl donor were mixed in an equal amount by weight, and the mixture was dissolved in water into a 10 w/v % aqueous solution which was then mixed with 2 units/g sucrose, d.s.b., of a polypeptide obtained by the method in Example 2-1, and reacted at 40° C. and pH 5.5 for 24 hours. Thereafter, the reaction mixture was separated by TCL similarly as above, and the plate was colored by spraying 0.5 N phosphate solution containing 0.2 w/v % naphthoresorcinol, and the plate was heated at 110° C. for 5 min to color and detect fructofuranosyl-transferred products.

The test system is the same in data set [2]. Nature of the data set: Action of the polypeptide on saccharide substrates (release of fructose, TLC). The data set is classed as biochemical, Bacillus sp. V230. Conditions: 2 w/v % substrate, 2 units/g substrate of polypeptide of Example 2-1, 40° C., pH 5.5, 24 hours. How it is done:
An aqueous solution, containing as a substrate sucrose, raffinose, erlose, stachyose, lactosucrose, xylosylfructoside, maltose, cellobiose, lactose, inulin or levan in a concentration of 2 w/v %, was mixed with 2 units/g substrate, d.s.b., of a polypeptide obtained by the method in Example 2-1 and reacted at 40° C. and pH 5.5 for 24 hours.
An adequate amount of each reaction mixture was spotted on “KIESELGEL 60”, an aluminum plate for thin layer chromatography (TLC) commercialized by Merck & Co., Inc., Rahway, USA, developed at ambient temperature using a developing solvent system of 1-butanol, pyridine and water (=7:3:1 by volume), and dried. When the reaction mixture contained fructose, the plate was colored by spraying 0.5 N phosphate solution containing 0.2 w/v % naphthoresorcinol, and heated at 110° C. for 5 min, while the plate was colored by spraying a mixture solution of 20 w/v % sulfuric acid in methanol and heated at 110° C. for 10 min.

Data set [3] can be described thus: β-fructofuranosidase activity assay (reducing power, Somogyi-Nelson's method). The data set is classed as biochemical. The conditions noted are these: sucrose substrate, 20 mM acetate buffer pH 6.0 with 5 mM calcium chloride, 40° C., 10 min. How it is done:
The activity of the present β-fructofuranosidase was assayed as follows: Sucrose as a substrate was dissolved in 20 mM acetate buffer (pH 6.0) containing 5 mM calcium chloride to give a concentration of 0.1 w/v %. To 5 ml of the solution was added 0.2 ml of a test sample, and the mixture was incubated at 40° C. for 10 min, followed by suspending the enzymatic reaction by the addition of 0.2 ml of the Somogyl copper solution and assaying the reducing power of the reaction mixture by the Somogyi-Nelson's method. As a control, a control solution, which was preheated at 100° C. for 10 min to inactivate the enzyme, was treated similarly as above. Under the above reaction conditions, one unit β-frustofuranosidase activity is defined as the amount of enzyme or polypeptide which gives a reducing power equal to that of 2 μmole of glucose per minute.

A short description of data set [4]: Optimum pH. Format: biochemical. Conditions: incubated at 40° C. for 10 min in 20 mM buffers.
The nature of data set [5]: Optimum temperature. The data set is classed as biochemical. Conditions: 10 min, 20 mM acetate buffer pH 6.0.
The nature of data set [6]: Thermal stability. Conditions: incubated for 60 min in 50 mM acetate buffer pH 6.0. Format: physicochemical.

Consider `CCCCO` [1-Butanol], for which the “Formation of fructofuranosyl-transferred product” value (shortened to “Formation”) in data set [1] is listed as “−”. As for `CCCO` [1-Propanol], in data set [1], the “Formation” value is “−”. As for `CCC(C)O` (centres unmarked) [2-Butanol], the “Formation” value in data set [1] was “−”. Consider `CC(C)O` [2-Propanol], for which the “Formation” value in data set [1] was “−”. Turning to `O=C[C@H](O)[C@@H](O)[C@H](O[C@@H]1O[C@H](CO)[C@@H](O)[C@H](O)[C@H]1O)[C@H](O)CO` [Cellobiose], the “action on substrate to release fructose” value in data set [2] is given as “did not substantially act on”. Moreover, in data set [1], the “Formation” value is recorded as “++”. As for `O=C(CO)[C@@H](O)[C@H](O)[C@H](O)CO` [D-Fructose], the “Formation” value in data set [1] was “+”. On the same count and under the same terms, the result for `O=C[C@H](O)[C@@H](O)[C@@H](O)[C@H](O)CO` [D-Galactose] reads “++”.

Take `O=C[C@@H](O)[C@@H](O)[C@H](O)[C@H](O)CO` [D-Mannose]: in data set [1], the “Formation” value is reported as “+”.

On to `OC[C@@H](O)[C@@H](O)[C@H](O)[C@@H](O)CO` [D-Sorbitol], for which the “Formation” value in data set [1] was “++”. On to `OC[C@@H](O)[C@H](O)[C@@H](O)CO` [D-Xylitol], for which the “Formation” value in data set [1] was “++”. Take `O=C[C@H](O)[C@@H](O)[C@H](O)CO` [D-Xylose]: in data set [1], the “Formation” value was “++”.

`CCO` [Ethanol]: the “Formation” value in data set [1] is reported as “+”. Still for that read-out and setting: to `OCCO` [Ethylene glycol] belongs “++”; to `OCC(O)CO` [Glycerol], “++”; to `OC[C@H]1O[C@H](OC[C@H]2OC(O)[C@H](O)[C@@H](O)[C@@H]2O)[C@H](O)[C@@H](O)[C@@H]1O` (some centres unmarked) [Isomaltose], “++”.

Regarding `OC[C@H]1O[C@H](O[C@H]2C(O)O[C@H](CO)[C@@H](O)[C@@H]2O)[C@H](O)[C@@H](O)[C@@H]1O` (some centres unmarked) [Kojibiose], the “Formation” value in data set [1] is reported as “+”. Turning to `O=C[C@H](O)[C@@H](O)[C@@H](O)CO` [L-Arabinose], the “Formation” value in data set [1] was “+”. Turning to `C[C@H](O)[C@H](O)[C@@H](O)[C@@H](O)C=O` [L-Rhamnose], in data set [1], the “Formation” value was “+”.

On to `O=C(CO)[C@@H](O)[C@H](O)[C@@H](O)CO` [L-Sorbose], for which, in data set [1], the “Formation” value is on record as “+”. For the molecule `OC[C@H]1O[C@@H](O[C@H]2[C@H](O)[C@@H](O)C(O)O[C@@H]2CO)[C@H](O)[C@@H](O)[C@H]1O` (some centres unmarked) [Lactose], in data set [2], the “action on substrate to release fructose” value is “did not substantially act on”. Besides, in data set [1], the “Formation” value is “++”. Consider `OC[C@@H](O)[C@@H](O[C@H]1O[C@H](CO)[C@@H](O)[C@H](O)[C@H]1O)[C@H](O)[C@@H](O)CO` [Maltitol], for which the “Formation” value in data set [1] is on record as “++”. `OC[C@H]1O[C@H](O[C@H]2[C@H](O)[C@@H](O)[C@H](O)O[C@@H]2CO)[C@H](O)[C@@H](O)[C@@H]1O` [Maltose]: the “action on substrate to release fructose” value in data set [2] is reported as “did not substantially act on”. In addition, the “Formation” value in data set [1] is “++”. Consider `OC[C@H]1O[C@H](OCC2O[C@@H](O)[C@H](O)[C@@H](O)[C@@H]2O)[C@H](O)[C@@H](O)[C@H]1O` (some centres unmarked) [Melibiose], for which the “Formation” value in data set [1] is recorded as “++”.

As to `CO` [Methanol], in data set [1], the “Formation” value is recorded as “+”.

Take `OC[C@H]1O[C@@H](O[C@H]2O[C@H](CO)[C@@H](O)[C@H](O)[C@H]2O)[C@H](O)[C@@H](O)[C@@H]1O` [Neotrehalose]: the “Formation” value in data set [1] was “+”. Take `OC[C@H]1O[C@H](OC[C@H]2OC(O)(CO)[C@@H](O)[C@@H]2O)[C@H](O)[C@@H](O)[C@@H]1O` (some centres unmarked) [Palatinose]: the “Formation” value in data set [1] is reported as “+”. For `OC[C@H]1O[C@H](OC[C@H]2O[C@H](O[C@H]3[C@H](O)[C@@H](O)C(O)O[C@@H]3CO)[C@H](O)[C@@H](O)[C@@H]2O)[C@H](O)[C@@H](O)[C@@H]1O` (some centres unmarked) [Panose], the “Formation” value in data set [1] was “++”. As to `OC[C@H]1O[C@H](OC[C@H]2O[C@H](O[C@]3(CO)O[C@H](CO)[C@@H](O)[C@@H]3O)[C@H](O)[C@@H](O)[C@@H]2O)[C@H](O)[C@@H](O)[C@H]1O` [Raffinose], in data set [2], the “action on substrate to release fructose” value is given as “acted on”. The “Formation” value in data set [1] is listed as “+”. As for `OC[C@H]1O[C@H](O[C@H]2O[C@H](CO)[C@@H](O)[C@H](O)[C@H]2O)[C@H](O)[C@@H](O)[C@@H]1O` [Trehalose], the “Formation” value in data set [1] is “++”. As to `O=C(CO)[C@@H](O[C@H]1O[C@H](CO)[C@@H](O)[C@H](O)[C@H]1O)[C@H](O)[C@H](O)CO` [Turanose], the “Formation” value in data set [1] is on record as “+”. On to `OC[C@H]1O[C@@](CO)(O[C@H]2O[C@H](CO)[C@@H](O[C@H]3O[C@H](CO)[C@@H](O)[C@H](O)[C@H]3O)[C@H](O)[C@H]2O)[C@@H](O)[C@@H]1O` [erlose], for which the “action on substrate to release fructose” value in data set [2] is “acted on”. On to `OC[C@H]1O[C@@H](O[C@H]2[C@H](O)[C@@H](O)[C@@H](O[C@]3(CO)O[C@H](CO)[C@@H](O)[C@@H]3O)O[C@@H]2CO)[C@H](O)[C@@H](O)[C@H]1O` [lactosucrose], for which the “action on substrate to release fructose” value in data set [2] is recorded as “acted on”. With `OC[C@H]1O[C@H](OC[C@H]2O[C@H](OC[C@H]3O[C@H](O[C@]4(CO)O[C@H](CO)[C@@H](O)[C@@H]4O)[C@H](O)[C@@H](O)[C@@H]3O)[C@H](O)[C@@H](O)[C@H]2O)[C@H](O)[C@@H](O)[C@H]1O` [stachyose], the “action on substrate to release fructose” value in data set [2] is given as “acted on”. Turning to `OC[C@H]1O[C@@](CO)(O[C@H]2O[C@H](CO)[C@@H](O)[C@H](O)[C@H]2O)[C@@H](O)[C@@H]1O` [sucrose], the “action on substrate to release fructose” value in data set [2] was “acted on”. Consider `OC[C@H]1O[C@](CO)(O[C@H]2OC[C@@H](O)[C@H](O)[C@H]2O)[C@@H](O)[C@@H]1O` [xylosylfructoside], for which the “action on substrate to release fructose” value in data set [2] is recorded as “acted on”. Regarding Maltotriose, in data set [1], the “Formation” value is “++”. Consider inulin, for which the “action on substrate to release fructose” value in data set [2] is given as “did not substantially act on”. With levan, the “action on substrate to release fructose” value in data set [2] is listed as “did not substantially act on”.

B1: polypeptide in Example 2-1: polypeptide with β-fructofuranosidase activity produced by transformant BBF4 (Escherichia coli), containing the amino acid sequence of SEQ ID NO:3 (protein)
chain: MNSGDYKEDYGFAHITRADMLKIPGQQNSPQFKVPQFNASAIKNIDSAKGYDKSGNLIDLDVWDSWPLQNADGTAANYHGYHIVSALAGDPKNSDDTPLHLFYQKVGDTSIDSWKNAGRVFEDMDKFVPNDPYLKYQTQEWSGSATLTKDGQVRLFYTDYSGNPEDGGTGAGNQIISTAQVNLSQPDAATLKVDGVSDHKSVFDGGDGTVYQNIQQFIDEGKWISGDNHTLRDPHYVEDKGHKYLVFEANTGTTDGYQGDQSFNNKAYYGGSDVFFQNEKNKLLQSPKKQIASLANGALGIVELADDYTVKSVMKPLVASNTVADEVERANIFKMNNKWYLFTDSRGSKMTSDGINDKDVYMLGPGGDSLNGPHNPINETGLVLNMNLDPADLTHTYSHCGIPHPEGNNVVLTSYMTNRGFYPEHHSHLRDKLGVNIKGSDTSGGENSSGQGQFP
Turning to B1, in data set [3], the “specific activity (β-fructofuranosidase)” value was 205 units/mg protein. Also, the “optimum pH” value in data set [4] is 5.5-6.0. Moreover, the optimum temperature is about 45 °C in data set [5] (in the absence of calcium ion) and “about 50 °C” in data set [5] (in the presence of 5 mM calcium ion). In data set [6], the “thermal stability (stable up to temperature)” value was at most 45 °C.
